From PMC6825211 (Nature Communications, 2019)
Values joined by “and” are separate entries in the source; they are usually repeats but may differ in a detail not shown here. Equal entries are not always repeated.

Key:
MLD–STZ C57BL/6J mice = assay: MLD–STZ model: PDX1, NKX6.1, Glut2 immunostaining; type: in vivo, mouse
Protocol: Representative triple stainings for PDX1 (red, a), Glut2 (red, b), or NKX6.1 (red, c), insulin (green), and DAPI (blue) are shown from vehicle-, STZ-, and STZ/Nera-treated mice (n = 8, 4, 9 & 9 mice/group). Scale bar, 100 μm
Mouse pancreases were dissected and fixed in 4% formaldehyde at 4 °C for 12 h before embedding in paraffin[62]. […] Slides were mounted with Vectashield with 4′6-diamidino-2-phenylindole (DAPI) (Vector Labs). β-cell apoptosis was analyzed by the terminal deoxynucleotidyl transferase-mediated dUTP nick-end labeling (TUNEL) technique according to the manufacturer’s instructions (In Situ Cell Death Detection Kit, TMR red; Roche) and double stained for insulin. Fluorescence was analyzed by using a Nikon MEA53200 (Nikon GmbH, Dusseldorf, Germany) microscope, and images were acquired by using NIS-Elements software (Nikon).

[1] = tested on: obese diabetic Lepr db/db mice; assay: db/db model: β-cell mass; type: in vivo, mouse; conditions: for BCM: dbdb mice
Text: (§1) Data are representative of six mice per group (n = 6 for (a–f)). g–j Mice were killed at day 31. g β-cell mass (given as percentage of the whole pancreatic section from ten sections spanning the width of the pancreas; n = 5 mice/group) and quantitative analyses from triple stainings for (h) TUNEL, (i) Ki67, (j) pHH3, and (k) nuclear PDX1 expression, insulin, and DAPI expressed as percentage of TUNEL-, Ki67-, pHH3-, or nuclear PDX1-positive β-cells ± SEM. An average number of 13667 (h), 5937 (i), 7108 (j), or 4330 (k) β-cells were counted from n = 3–5 (h, i, k) or n = 5–6 (j) mice/group.
For morphometric data, ten sections (spanning the width of the pancreas) per mouse were analyzed. Pancreatic tissue area and insulin-positive area were determined by computer-assisted measurements by using a Nikon MEA53200 (Nikon GmbH, Dusseldorf, Germany) microscope, and images were acquired by using NIS-Elements software (Nikon). β-cell mass was obtained by multiplying the β-cell fraction by the weight of the pancreas.

[2] = tested on: obese diabetic Lepr db/db mice; assay: db/db model: β-cell proliferation (pHH3); type: in vivo, mouse; conditions: dbdb mice
IGF1R = IGF1R (Homo sapiens, UniProt P08069); assay: Nanosyn kinase profiling, mobility shift assay; conditions: read-out: % inhibition by neratinib
IGF1R, sequence (P08069 31-1367): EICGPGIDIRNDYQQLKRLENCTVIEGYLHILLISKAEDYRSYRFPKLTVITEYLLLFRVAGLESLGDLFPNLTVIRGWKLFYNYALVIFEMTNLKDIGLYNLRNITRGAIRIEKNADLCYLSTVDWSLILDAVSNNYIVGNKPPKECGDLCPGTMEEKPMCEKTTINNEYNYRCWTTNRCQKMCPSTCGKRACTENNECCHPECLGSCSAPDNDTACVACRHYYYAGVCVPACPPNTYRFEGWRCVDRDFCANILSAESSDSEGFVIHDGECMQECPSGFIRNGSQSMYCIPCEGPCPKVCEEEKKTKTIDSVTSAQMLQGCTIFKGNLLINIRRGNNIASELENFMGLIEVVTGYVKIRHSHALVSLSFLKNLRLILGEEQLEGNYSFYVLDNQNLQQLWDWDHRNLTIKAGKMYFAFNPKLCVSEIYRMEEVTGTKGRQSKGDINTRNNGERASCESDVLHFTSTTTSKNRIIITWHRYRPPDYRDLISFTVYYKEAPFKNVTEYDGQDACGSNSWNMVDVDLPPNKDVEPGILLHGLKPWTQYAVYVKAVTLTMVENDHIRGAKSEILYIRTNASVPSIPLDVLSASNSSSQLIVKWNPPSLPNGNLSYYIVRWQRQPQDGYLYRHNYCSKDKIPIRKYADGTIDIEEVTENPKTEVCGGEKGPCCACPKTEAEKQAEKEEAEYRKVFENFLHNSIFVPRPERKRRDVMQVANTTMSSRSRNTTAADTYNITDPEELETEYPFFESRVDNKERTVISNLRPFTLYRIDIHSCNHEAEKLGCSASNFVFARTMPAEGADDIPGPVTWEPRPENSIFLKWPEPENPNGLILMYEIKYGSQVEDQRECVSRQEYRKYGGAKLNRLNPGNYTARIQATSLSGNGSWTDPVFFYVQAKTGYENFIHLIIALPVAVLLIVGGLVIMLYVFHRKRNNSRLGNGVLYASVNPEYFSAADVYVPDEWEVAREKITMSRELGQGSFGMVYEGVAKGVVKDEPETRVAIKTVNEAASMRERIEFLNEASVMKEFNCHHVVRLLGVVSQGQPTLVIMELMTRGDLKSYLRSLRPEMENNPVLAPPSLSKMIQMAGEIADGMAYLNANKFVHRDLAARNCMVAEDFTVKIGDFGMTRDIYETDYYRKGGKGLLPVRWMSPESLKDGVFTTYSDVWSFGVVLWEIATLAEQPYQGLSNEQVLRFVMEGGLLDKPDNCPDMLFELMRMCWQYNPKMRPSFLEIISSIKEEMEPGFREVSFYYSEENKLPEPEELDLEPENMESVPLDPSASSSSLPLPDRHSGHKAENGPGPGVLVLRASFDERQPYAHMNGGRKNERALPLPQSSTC

ROCK1 = ROCK1 (Homo sapiens, UniProt Q13464); assay: Nanosyn kinase profiling, mobility shift assay; conditions: read-out: % inhibition by neratinib
ROCK1, sequence (Q13464 whole entry): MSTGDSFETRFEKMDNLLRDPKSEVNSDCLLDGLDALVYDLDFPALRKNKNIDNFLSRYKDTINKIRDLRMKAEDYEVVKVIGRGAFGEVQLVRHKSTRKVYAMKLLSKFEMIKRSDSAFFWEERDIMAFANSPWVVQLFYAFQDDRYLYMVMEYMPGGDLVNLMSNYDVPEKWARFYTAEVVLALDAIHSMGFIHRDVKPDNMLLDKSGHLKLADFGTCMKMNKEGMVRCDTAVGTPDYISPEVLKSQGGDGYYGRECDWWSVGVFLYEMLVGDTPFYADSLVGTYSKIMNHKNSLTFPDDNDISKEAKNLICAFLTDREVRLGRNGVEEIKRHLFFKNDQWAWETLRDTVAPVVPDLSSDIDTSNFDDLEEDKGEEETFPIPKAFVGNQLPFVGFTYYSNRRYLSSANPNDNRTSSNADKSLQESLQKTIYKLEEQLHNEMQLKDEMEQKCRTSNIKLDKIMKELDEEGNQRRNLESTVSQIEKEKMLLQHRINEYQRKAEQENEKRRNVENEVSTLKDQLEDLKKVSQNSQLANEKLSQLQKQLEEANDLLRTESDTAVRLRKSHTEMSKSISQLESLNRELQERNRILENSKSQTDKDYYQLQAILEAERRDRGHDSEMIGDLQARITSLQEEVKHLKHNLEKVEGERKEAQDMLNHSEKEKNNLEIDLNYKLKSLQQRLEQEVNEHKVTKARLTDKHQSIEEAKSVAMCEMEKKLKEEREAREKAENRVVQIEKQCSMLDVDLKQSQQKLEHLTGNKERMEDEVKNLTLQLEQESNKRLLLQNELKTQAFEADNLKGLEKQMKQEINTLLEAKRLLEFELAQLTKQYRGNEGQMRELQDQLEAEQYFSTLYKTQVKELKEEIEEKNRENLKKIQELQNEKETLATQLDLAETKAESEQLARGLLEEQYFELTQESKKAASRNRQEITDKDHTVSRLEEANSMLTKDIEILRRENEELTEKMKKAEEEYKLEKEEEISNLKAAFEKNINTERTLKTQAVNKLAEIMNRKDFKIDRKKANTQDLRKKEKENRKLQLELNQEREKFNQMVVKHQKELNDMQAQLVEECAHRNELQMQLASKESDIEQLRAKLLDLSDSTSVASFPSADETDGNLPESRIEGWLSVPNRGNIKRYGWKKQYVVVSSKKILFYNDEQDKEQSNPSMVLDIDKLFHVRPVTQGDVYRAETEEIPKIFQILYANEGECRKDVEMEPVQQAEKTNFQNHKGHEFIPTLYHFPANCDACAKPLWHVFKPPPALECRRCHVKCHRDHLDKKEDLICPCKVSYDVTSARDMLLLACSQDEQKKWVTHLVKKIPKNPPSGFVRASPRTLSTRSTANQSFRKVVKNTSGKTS

FAK = FAK (Homo sapiens, UniProt Q05397); assay: Nanosyn kinase profiling, mobility shift assay; conditions: read-out: % inhibition by neratinib
INS-1E cells = assay: Cytotoxicity CellTiter-Glo assay; conditions: all tested concentrations, 24 h
Protocol: Assay plates were shaken vigorously for 1 min at RT to achieve completed cell lysis. Luminescence intensity was detected on Envision plate reader (Perkin Elmer, MA).

[3] = tested on: isolated islets from db/db mice; assay: Ex vivo pMST1, BIM (western blot) and nuclear PDX1 in isolated db/db islets; type: cell-based, mouse; conditions: 10 μM, 24 h ex vivo
Text: mouse islets ex vivo. Representative double-stainings for PDX1 (green) and insulin (red) shown from isolated islets from 10-week old heterozygous db/+ mice or db/db littermates […]
Representative microscopical images are shown. White arrow point to PDX1 deficient nuclei in db/db mouse islets. Related to Figure

PKC-ALPHA = PKC-ALPHA (Homo sapiens, UniProt P17252); assay: Nanosyn kinase profiling, mobility shift assay; conditions: read-out: % inhibition by neratinib
[4] = tested on: obese diabetic Lepr db/db mice; assay: db/db model: random fed blood glucose; type: in vivo, mouse; conditions: for glycemia: dbdb mice
Text: as §1

CSK = CSK (Homo sapiens, UniProt P41240); assay: Nanosyn kinase profiling, mobility shift assay; conditions: read-out: % inhibition by neratinib
CSK, sequence (P41240 whole entry): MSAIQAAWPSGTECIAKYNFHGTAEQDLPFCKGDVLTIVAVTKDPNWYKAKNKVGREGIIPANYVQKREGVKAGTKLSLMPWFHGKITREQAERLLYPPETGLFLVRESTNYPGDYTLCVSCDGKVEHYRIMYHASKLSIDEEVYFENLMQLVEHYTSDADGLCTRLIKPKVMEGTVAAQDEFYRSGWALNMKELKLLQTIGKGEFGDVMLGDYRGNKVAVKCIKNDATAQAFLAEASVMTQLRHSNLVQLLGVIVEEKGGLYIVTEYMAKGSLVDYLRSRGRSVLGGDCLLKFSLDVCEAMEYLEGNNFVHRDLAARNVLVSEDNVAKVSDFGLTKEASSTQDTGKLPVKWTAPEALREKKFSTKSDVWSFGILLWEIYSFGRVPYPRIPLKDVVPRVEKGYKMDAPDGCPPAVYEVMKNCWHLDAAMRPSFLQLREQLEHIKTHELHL

[5] = tested on: obese diabetic Lepr db/db mice; assay: db/db model: ratio of secreted insulin and glucose at fed state; type: in vivo, mouse; conditions: dbdb Nera
MET = MET (Homo sapiens, UniProt P08581); assay: Nanosyn kinase profiling, mobility shift assay; conditions: read-out: % inhibition by neratinib
MET, sequence (P08581 25-1390): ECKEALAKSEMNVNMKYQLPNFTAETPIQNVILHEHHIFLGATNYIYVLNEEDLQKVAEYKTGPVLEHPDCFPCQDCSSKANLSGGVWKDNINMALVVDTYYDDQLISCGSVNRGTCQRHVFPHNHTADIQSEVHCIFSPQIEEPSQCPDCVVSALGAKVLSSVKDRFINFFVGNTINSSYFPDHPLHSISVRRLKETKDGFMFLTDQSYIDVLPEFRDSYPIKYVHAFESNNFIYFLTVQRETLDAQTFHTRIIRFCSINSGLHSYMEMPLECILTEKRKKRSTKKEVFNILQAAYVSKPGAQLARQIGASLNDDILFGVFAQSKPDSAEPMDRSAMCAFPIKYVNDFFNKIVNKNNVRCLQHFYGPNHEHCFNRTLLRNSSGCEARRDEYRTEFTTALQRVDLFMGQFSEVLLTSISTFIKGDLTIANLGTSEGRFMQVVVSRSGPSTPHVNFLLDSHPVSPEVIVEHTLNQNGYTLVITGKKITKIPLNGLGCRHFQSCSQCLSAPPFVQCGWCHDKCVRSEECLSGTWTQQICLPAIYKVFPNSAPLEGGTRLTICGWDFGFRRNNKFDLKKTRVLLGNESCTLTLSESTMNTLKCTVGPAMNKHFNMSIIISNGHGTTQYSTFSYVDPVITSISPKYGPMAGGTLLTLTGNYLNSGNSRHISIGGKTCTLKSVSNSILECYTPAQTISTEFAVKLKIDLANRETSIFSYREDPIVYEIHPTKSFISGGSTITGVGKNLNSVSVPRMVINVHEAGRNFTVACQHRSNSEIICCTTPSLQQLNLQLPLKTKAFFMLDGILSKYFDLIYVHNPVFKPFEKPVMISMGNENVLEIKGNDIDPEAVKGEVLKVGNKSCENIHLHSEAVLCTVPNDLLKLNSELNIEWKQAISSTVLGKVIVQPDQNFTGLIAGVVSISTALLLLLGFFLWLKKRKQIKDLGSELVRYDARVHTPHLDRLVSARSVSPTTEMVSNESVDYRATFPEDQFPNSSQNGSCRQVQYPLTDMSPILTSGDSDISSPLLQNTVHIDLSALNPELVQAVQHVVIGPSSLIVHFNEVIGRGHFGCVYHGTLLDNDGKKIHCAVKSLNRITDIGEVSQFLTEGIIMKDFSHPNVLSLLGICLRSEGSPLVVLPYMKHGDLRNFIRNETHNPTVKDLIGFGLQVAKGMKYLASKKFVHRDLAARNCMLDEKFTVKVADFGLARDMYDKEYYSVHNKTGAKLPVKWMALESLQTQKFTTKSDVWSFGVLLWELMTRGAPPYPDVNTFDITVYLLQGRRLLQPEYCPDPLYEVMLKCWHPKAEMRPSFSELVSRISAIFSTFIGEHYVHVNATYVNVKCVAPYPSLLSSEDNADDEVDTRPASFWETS

[6] = tested on: obese diabetic Lepr db/db mice; assay: db/db model: ipITT; type: in vivo, mouse; parameters: ipITT: unit not given here; conditions: for ipITT normalized to 100: MEAN
Text: as §1
For intraperitoneal glucose tolerance tests, mice were fasted 12 h overnight and injected i.p. with glucose (40%; B.Braun, Melsungen, Germany) at a dose of 1 g/kg body weight. Blood samples were obtained at time points 0, 15, 30, 60, 90, and 120 min for glucose measurements by using a Glucometer. For i.p. insulin tolerance tests, mice were injected with 0.75 U/kg body weight recombinant human insulin (Novolin, Novo Nordisk) after 4–5-h fasting, and glucose concentration was determined with the Glucometer. Insulin secretion was measured before (0 min) and after (15 and 30 min) i.p. injection of glucose (2 g/kg) and measured by using ultrasensitive mouse Elisa kit (ALPCO Diagnostics, Salem, NH).

CCOc1cc2ncc(C#N)c(Nc3ccc(OCc4ccccn4)c(Cl)c3)c2cc1NC(=O)/C=C/CN(C)C [neratinib] was tested, and the “β-cell Glut2 expression” value (MLD–STZ C57BL/6J mice; MLD–STZ mice) was “restored β-cell Glut2 expression”, the “loss of nuclear PDX1- and NKX6.1-positive cells and islet architecture in MLD–STZ mice” value (MLD–STZ C57BL/6J mice; mouse, in vivo) was “markedly attenuated” and the β-cell mass ([1]; db/db, day 31) was “increased β-cell mass”. The BCM ([1]; Mean) was 4.571, the BCM ([1]; individual mice) was 1.526 and 8.3226 and 3.26 and 4.639 and 5.1069 and the pHH3 %/ mouse ([2]; Mean) was 0.4112%. The pHH3 %/ mouse ([2]; individual mice) was 0.7567% and 0.6289% and 0.2824% and 0.1109% and 0.2748% and 0.4135%, the inhibition at 10 µM (IGF1R) was 37% and the inhibition at 10 µM (ROCK1) was -48%. The inhibition at 10 µM (FAK) was 8%, the “basal cell viability (steady-state ATP)” value (INS-1E cells) was “no evidence of interference on basal cell viability” and the “MST1 activation and proapoptotic BIM in db/db islets” value [3] was “reversed”. For the same compound, the “nuclear PDX1 expression in db/db islets” value [3] was “enhanced nuclear PDX1 expression”, the inhibition at 10 µM (PKC-ALPHA) was 7% and the “blood glucose, start to after 30 days of therapy” value ([4]; db/db neratinib group, no significant increase) was 312 to 384 mg/dL. For the same compound, the “blood glucose levels after 4 weeks” value ([4]; db/db, 5 mg/kg i.p. daily) was “did not significantly increase”, the glycemia ([4]; 0 days after NERA injection, MEAN) was 311.667 mg/dL and the glycemia ([4]; 0 days after NERA injection, individual mice) was 219 mg/dL and 243 mg/dL and 260 mg/dL and 443 mg/dL and 266 mg/dL and 439 mg/dL. The glycemia ([4]; 31 days after NERA injection, individual mice) was 405 mg/dL and 313 mg/dL and 425 mg/dL and 317 mg/dL and 380 mg/dL and 462 mg/dL, the inhibition at 10 µM (CSK) was 95% and the ins/gluc ([5]; Mean) was 13.8584. For the same compound, the ins/gluc ([5]; fed state, individual mice) was 16.7538 and 11.2869 and 14.8626 and 15.5775 and 11.515 and 13.1546, the inhibition at 10 µM (MET) was 28% and the “ipITT normalized to 100” value ([6]; 0 min after ins) was 100. For the same compound, the “ipITT normalized to 100” value ([6]; 15 min after ins) was 132.381, the “ipITT normalized to 100” value ([6]; 30 min after ins) was 111.751 and the “ipITT normalized to 100” value ([6]; 60 min after ins) was 88.1279. For the same compound, the “ipITT normalized to 100” value ([6]; 90 min after ins) was 87.8414, the “basal glucose lower in neratinib-treated mice after a short fast of 4 h” value ([6]; db/db) was 20% and the “response to insulin challenge (ipITT)” value ([6]; db/db) was “modestly reduced ability to lower their glucose levels”. The “AUC ipITT” value ([6]; insert 8d, normalized to 100, individual mice) was 11197.2 and 9260.59 and 10559.8 and 6670.17 and 8196.06 and 9385.6, the “MEAN AUC ipITT” value ([6]; insert 8d, normalized to 100, mean) was 9211.58 and the ipITT ([6]; time 0, MEAN) was 336.667. The ipITT ([6]; time 0, individual mice) was 327 and 354 and 301 and 357 and 292 and 389, the ipITT ([6]; time 15, MEAN) was 444.667 and the ipITT ([6]; time 15, individual mice) was 477 and 480 and 417 and 432 and 371 and 491. For the same compound, the ipITT ([6]; time 30, MEAN) was 371.5, the ipITT ([6]; time 30, individual mice) was 455 and 383 and 437 and 224 and 323 and 407 and the ipITT ([6]; time 60, MEAN) was 297.167. The ipITT ([6]; time 60, individual mice) was 397 and 342 and 303 and 176 and 182 and 383, the ipITT ([6]; time 90, MEAN) was 295.833 and the ipITT ([6]; time 90, individual mice) was 324 and 270 and 290 and 289 and 230 and 372.
